Source: ChEMBL document CHEMBL3352040, “From human immunodeficiency virus non-nucleoside reverse transcriptase inhibitors to potent and selective antitrypanosomal compounds” (Bioorg Med Chem, 2014)
The source made the active and inactive calls. The calls are words filed in the database; no cut-off is given here.

Experiments:
[1] = system: Leishmania infantum; assay: Antileishmanial activity against Leishmania infantum MHOM/MA (BE)/67 infected in primary peritoneal mouse macrophages assessed as reduction in parasite burdun; format: functional, organism-based
[2] = Cytotoxicity against human TZM-bl cells assessed as cell viability after 48 hrs by WST1 assay; format: cell-based
[3] = system: Human immunodeficiency virus 1; assay: Antiviral activity against HIV1 infected in human TZM-bl cells assessed as viral inhibition pre-incubated for 30 mins prior to infection measured after 48 hrs by; format: functional, organism-based; conditions: Human immunodeficiency virus 1, TZM-bl
[4] = system: Trypanosoma brucei rhodesiense; assay: Antitrypanocidal activity against suramin-sensitive Trypanosoma brucei rhodesiense STIB-900 assessed as reduction in parasite growth after 72 hrs; format: functional, organism-based; conditions: STIB-900, 72 h
[5] = system: Trypanosoma brucei brucei; assay: Antitrypanocidal activity against suramin-sensitive Trypanosoma brucei brucei Squib427 assessed as reduction in parasite growth after 72 hrs; format: functional, organism-based; conditions: Squib427, 72 h
[6] = system: Trypanosoma cruzi; assay: Trypanocidal activity against nifurtimox-sensitive Trypanosoma cruzi Tulahuen CL2 infected in human MRC5 SV2 cells assessed as parasite growth inhibition after […] by beta-galactosidase assay; format: functional, organism-based
[7] = Cytotoxicity against human MRC5 SV2 cells assessed as reduction in cell growth after 72 hrs; format: cell-based; conditions: MRC5, 72 h
[8] = system: Plasmodium falciparum; assay: Antiplasmodial activity against chloroquine-resistant Plasmodium falciparum K1 infected in human O positive erythrocyte assessed as reduction in parasitemia after 72 hrs; format: functional, organism-based; conditions: K1, 72 h
[9] = Stability of the compound in PBS buffer assessed as recovery at pH 7.4 measured after 24 hrs by UPLC analysis; format: physicochemical; conditions: read-out: Drug recovery
[10] = Octanol-phosphate buffer partition coefficient, log D of the compound at pH 7.4 after 2 hrs of shaking after 2 hrs; format: physicochemical
[11] = Metabolic stability in human liver microsomes assessed as compound remaining after 15 mins by UPLC analysis; format: ADME; conditions: read-out: Stability
[12] = Metabolic stability in mouse plasma assessed as compound remaining after 1 hr; format: ADME, cell-free; conditions: read-out: Stability
[13] = Metabolic stability in mouse liver microsomes assessed as compound remaining after 15 mins by UPLC analysis; format: ADME; conditions: read-out: Stability
[14] = Solubility of the compound in 10 mM PBS buffer solution at pH7.4 at 3.125 to 200 uM after 2 hrs; format: physicochemical; conditions: pH 7.4
[15] = Metabolic stability in human plasma assessed as compound remaining after 1 hr; format: ADME, cell-free; conditions: read-out: Stability
[16] = system: Trypanosoma brucei brucei; assay: Trypanocidal activity against suramin-sensitive Trypanosoma brucei brucei Squib427 infected in Swiss mouse assessed as survivors on day 14 post infection at 10 mg/kg first dose through orally and next four dosed administered intraperitoneally for 4 days; format: functional, organism-based; parameters: dose 10 mg/kg
[17] = system: Trypanosoma brucei brucei; assay: Trypanocidal activity against suramin-sensitive Trypanosoma brucei brucei Squib427 infected in Swiss mouse assessed as mean survival time at 10 mg/kg first dose through orally and next four dosed administered intraperitoneally for 4 days (reference value: 7.2 days); format: functional; conditions: route oral
[18] = system: Trypanosoma brucei brucei; assay: Trypanocidal activity against suramin-sensitive Trypanosoma brucei brucei Squib427 infected in Swiss mouse assessed as reduction in parasitemia at 10 mg/kg first dose through orally and next four dosed administered intraperitoneally for 4 days; format: functional; conditions: Squib427, 96 h, route oral

Compound	IC50 [1]	CC50 at 48 h [2]	EC50 [3]	IC50 [4]	IC50 [5]	IC50 [6]	IC50 [7]	IC50 [8]	also measured
CCCCCCCCCCCCCCCCOP(=O)([O-])OCC[N+](C)(C)C [MILTEFOSINE]	6.17 µM	–	–	–	–	–	–	–	–
Cc1cc(C#N)cc(C)c1Oc1nc(Nc2ccc(C#N)cc2)nc(N)c1Br [ETRAVIRINE]	41.6 µM	> 25 µM	0.001 µM	> 64 µM	> 64 µM	> 64 µM	> 64 µM	64 µM	–
O=C(Cn1ccnc1[N+](=O)[O-])NCc1ccccc1 [BENZNIDAZOLE]	–	–	–	–	–	2.56 µM	–	–	–
Cc1ccnc2c1NC(=O)c1cccnc1N2C1CC1 [NEVIRAPINE]	> 64 µM	> 50 µM	0.144 µM	> 64 µM	> 64 µM	> 64 µM	> 64 µM	64 µM	–
CO[C@H]1O[C@@H]2O[C@@]3(C)CC[C@H]4[C@H](C)CC[C@@H]([C@H]1C)[C@@]24OO3	–	–	–	–	–	–	–	> 64 µM	–
Cc1cc(C)c(Nc2ccnc(Nc3ccc(C#N)cc3)n2)c(C)c1 [DAPIVIRINE]	> 64 µM	2.47 µM	0.002 µM	19.5 µM	> 16 µM	1.25 µM	> 64 µM	4.88 µM	–
CCN(CC)CCCC(C)Nc1ccnc2cc(Cl)ccc12 (stereo unspecified) [CHLOROQUINE]	–	–	–	–	–	–	–	> 64 µM	–
CC1CS(=O)(=O)CCN1/N=C/c1ccc([N+](=O)[O-])o1 (stereo unspecified) [NIFURTIMOX]	–	–	–	–	–	0.7 µM	–	–	–
c1ccc(Nc2ccnc(Nc3ccccc3)n2)cc1	22.2 µM	–	> 10 µM	2.53 µM	7.27 µM	4.45 µM	13.2 µM	21.8 µM	–
N#Cc1ccc(NC(=O)N[C@@H]2[C@@H]3COc4c(F)ccc(F)c4[C@@H]32)nc1	> 64 µM	–	0.001 µM	> 64 µM	> 64 µM	> 64 µM	> 64 µM	64 µM	–
CCc1nn(CCO)c(CC)c1Oc1cc(C#N)cc(C#N)c1 [LERSIVIRINE]	> 64 µM	> 100 µM	0.003 µM	54.7 µM	> 64 µM	> 64 µM	–	> 64 µM	–
CC(C)Nc1cccnc1N1CCN(C(=O)c2cc3cc(NS(C)(=O)=O)ccc3[nH]2)CC1 [DELAVIRDINE]	> 64 µM	> 50 µM	0.055 µM	> 64 µM	> 64 µM	> 64 µM	> 64 µM	64 µM	–
CC(C)=CCOc1cc(NC(=S)c2ccoc2C)ccc1Cl [UC 781]	> 64 µM	> 100 µM	0.003 µM	38.5 µM	> 64 µM	> 64 µM	> 64 µM	27.4 µM	–
Nc1nc(N)nc(Nc2ccc([As]3SCC(CO)S3)cc2)n1 (stereo unspecified) [MELARSOPROL]	–	–	–	0.02 µM	0.03 µM	–	7.4 µM	–	remaining at 24 h [9]: 100%; logD at 2 h [10]: 4.51; remaining at […] [11]: 84%; remaining at 1 h [12]: 100%; remaining at […] [13]: 72%; solubility at 2 h [14]: 25 µM; remaining at 1 h [15]: 100%
O=C1Nc2ccc(Cl)cc2[C@@](C#CC2CC2)(C(F)(F)F)O1 [EFAVIRENZ]	7.4 µM	> 50 µM	–	19.6 µM	30.2 µM	8.56 µM	25.8 µM	43.8 µM	–
Cc1ccc(C(=O)Nc2ccc(S(=O)(=O)O)c3cc(S(=O)(=O)O)cc(S(=O)(=O)O)c23)cc1NC(=O)c1cccc(NC(=O)Nc2cccc(C(=O)Nc3cc(C(=O)Nc4ccc(S(=O)(=O)O)c5cc(S(=O)(=O)O)cc(S(=O)(=O)O)c45)ccc3C)c2)c1 [SURAMIN]	–	–	–	0.02 µM	0.02 µM	–	> 64 µM	–	Activity [16]: Active; MST [17]: >21 days; inhibition in vivo at 10 mg/kg [18]: 100%
NS(=O)(=O)c1ccc(Oc2ccc(NC(=O)N[C@H]3[C@@H]4COc5c(F)ccc(F)c5[C@@H]43)nc2)cc1	32.5 µM	> 100 µM	0.001 µM	38.5 µM	32.1 µM	> 64 µM	–	29.5 µM	–
